The results in this text go back to patent US10889627B2, “Pro-drug peptide with improved pharmaceutical properties” (UREKA SARL, priority 2017, dated 2021).

Data set [1] can be described thus: Stability assay in NaCl 0.9% aqueous solution (RP-HPLC). Type of data set: physicochemical. The conditions noted are these: 1 mg/mL.
Protocol: A solution of 1 mg/mL of peptide or peptidomimetic (glucagon or analog thereof) was prepared in a NaCl 0.9% aqueous solution and stored at room temperature, or 4° C., or 37° C. and or 50° C. The samples were analyzed by RP-HPLC on a Dionex U3000SD using a Macherey-Nagel Nucleodur C18ec column (4×100 mm, 3 μm) at a flow rate of 1 mL/min with UV detection at 200 nm. The mobile phase was composed of 0.1% (v/v) TFA-H2O (Solvent A) and 0.1% (v/v) TFA-CH3CN (Solvent B).
Data set [2] relates to Wistar Rat. The experiment in a line: Rat studies, blood glucose after i.v. dosing (Example 2). The conditions noted are these: Wistar rats, 3 hours fasting, 10 nM/kg i.v., FIGS. 12 and 13. Type of data set: in vivo.
Description: The rats (Wistar Rat, males, 8-week old, n=6 or 3) were housed in ventilated and enriched housing cages (310×125×127 mm^3) throughout the experimental phase. […] The rates were acclimated for 5 days with standard diet and tap water.
A short description of data set [3]: Solubility assay (Example 2, percent soluble by UV absorbance). The conditions noted are these: PBS buffer (0.1M) at pH 7.4.
Protocol: (§1) A solution of the compound (e.g., glucagon or analogues thereof) was prepared in a 0.01M HCl solution. Then 0.1 mL of the stock solution was diluted to 1 mL with HCl (0.01M) and the UV absorbance was measured (to 280 nm) with NanoDrop UV spectrometer (NanoDrop 1000 from Thermo Fischer Company). The pH of the remaining stock solution was adjusted to pH 7 using Na2HPO4 (0.1M) and the solution was allowed to stand overnight at 4° C. Then the solution was centrifuged three times (5 min, 4000 min^−1), 0.1 mL of the supernatant was removed and diluted to 1 mL with HCl solution (0.01M). The final UV absorbance was measured. The solubility was accessible by the following formula: (Final Absorbance/Initial Absorbance)×100=Percent Soluble
For data set [4] the following is noted: pH 7.4.
Protocol: as §1

Read-outs that look alike come from different tables or passages of the source.

For “KPKPKPHSQGTFTSDYSKYLDSRRAQDFVQWLLNT-NH2 [Peptide 14]”, the “Percentage of peptide remaining” value in data set [1] (4° C., 1 month (T0 = 100%)) is on record as 99%; in data set [1] (4° C., 1 week (T0 = 100%)), 99%; in data set [1] (4° C., 5 months (T0 = 100%)), 97%; in data set [1] (RT, 1 month (T0 = 100%)), 97%; in data set [1] (RT, 1 week (T0 = 100%)), 99%; in data set [1] (RT, 5 months (T0 = 100%)), 87%. Besides, in data set [2], the “Glycogen breakdown (increased blood glucose levels) compared to glucagon” value is “greater glycogen breakdown”. In addition, the “Solubility at 1 mg/mL” value in data set [3] is listed as 77%.
In the case of “K*PHSQGTFTSDYSKYLDSRRAQDFVQWLLNT-NH2 [Peptide 22]”, in data set [3], the “Solubility at 1 mg/mL” value was found to be 34%.
For the substance “EPHSQGTFTSDYSKYLDSRRAQDFVQWLLNT-NH2 [Peptide 18]”, in data set [4], the “Solubility at 1 mg/mL” value is 18%.
